Literature values in US9273049B2 (North-West University, priority 2009, dated 2016).

Conditions: Class II = high permeability, low solubility

FDA classification: Class II
SMILES: Cc1ccnc2c1NC(=O)c1cccnc1N2C1CC1 [nevirapine, 11-cyclopropyl1-5,11-dihydro-4-methyl-6H-dipyrido[3,2-b: 2′,3′-e][1,4]diazepin-6-one]
